Reference: US9617263B2, “Phenyl-triazolo-pyridine compounds” (Eli Lilly and Company, priority 2014, dated 2017)

Tested on: Male Balb/c mice
Experiment: Intraperitoneal glucose tolerance test (IPGTT)
Assay type: in vivo, mouse
Conditions: 30 and 60 minute time points; Example 1 at 10, 30, 100 mg/kg oral; positive control 10 mg/kg
Experimental: To examine the ability of Examples 1 to 20 to activate GPR40 in-vivo resulting in desired glucose lowering efficacy, i.e. reduction in plasma glucose levels, an intraperitoneal glucose tolerance test (ipGTT) study is completed, and the data is shown for the compound tested below.
Male Balb/c (Albino mice) mice (8-9 weeks of age) are single housed, and fed with normal rodent chow diet and water ad libitum. Animals are weighed; randomized by body weight; and their daily body weights are recorded. Animals are dosed daily using a formulation carrying methylcellulose and tween-80. On the night before the study, animals are fasted. In the morning, animals are dosed orally with compound or vehicle alone 60 minutes prior to the glucose tolerance test (glucose 2 g/kg, i.p.). Blood glucose levels are determined from tail bleeds taken at 0, 3, 7, 15, 30, and 60 min after glucose challenge. […] Percent lowering in glucose is calculated from the AUC data of the compound with respect to the AUC of vehicle group. The test compound is orally administered at 0.3, 1.0, 3.0, 10, 30, or 100 mg/kg, and a positive control (3-[4-(2-methyl-benzyloxy)-phenyl]-hex-4-ynoic acid, see WO2005086661 (TAK875).) is administered at 10 mg/kg. […] Glucose levels are lowered at the 30, and 60 minute time points for the positive control.

Question: Which “Glucose levels compared to vehicle control” value does the source give for `Cc1cc(OCCCS(C)(=O)=O)cc(C)c1-c1cccc(COc2ccc3c(c2)OC[C@H]3CC(=O)O)c1` [TAK875, fasiglifam, reference compound] here?
Answer: lowered

Target: hGPR40 (Homo sapiens, UniProt O14842)
Experiment: Calcium Flux Primary Assay (FLIPR, Calcium 4 Dye)
Assay type: cell-based
Parameters: expressed in transfected cells; host or cells: HEK293
Conditions: HEK293, HEK293 cells over expressing human GPR40; vs natural ligand linoleic acid; read-out: efficacy (maximal response compared to linoleic acid)
Experimental: HEK293 cells over expressing the human GPR40 cDNA maintained in Dulbecco's modified Eagle's medium with F12 medium in 3:1 ratio supplemented with 10% FBS and 800 μg/ml geneticin at 37° C. and 5% CO2 are employed for the study. Agonist assays are performed using a Calcium 4 Dye assay kit (Molecular Devices) in the presence or absence of 0.1% fatty acid free BSA in the assay buffer (1×HBSS (Hank's Balanced Salt Solution) & 20 mM HEPES (4-(2-hydroxyethyl)-1-piperazineethanesulfonic acid). Receptor activation is measured as an increase in intracellular calcium using the Fluorometric Imaging Plate Reader (FLIPR). Maximum change in fluorescence over the base line is used to determine the agonist response. The EC50 value of the compound is calculated using Excel Fit software (version 4; IDBS) by plotting concentration vs relative fluorescence units (RFUs).

Chain of hGPR40 (O14842 whole entry): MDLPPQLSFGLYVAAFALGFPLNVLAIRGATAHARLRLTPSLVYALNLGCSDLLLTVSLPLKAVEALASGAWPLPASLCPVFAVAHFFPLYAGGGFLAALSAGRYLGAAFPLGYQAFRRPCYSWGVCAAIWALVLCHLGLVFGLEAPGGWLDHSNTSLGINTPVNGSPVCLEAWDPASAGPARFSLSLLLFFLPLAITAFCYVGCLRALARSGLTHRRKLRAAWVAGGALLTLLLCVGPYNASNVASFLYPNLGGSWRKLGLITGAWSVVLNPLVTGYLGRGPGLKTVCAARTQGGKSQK

Question: `CC#C[C@@H](CC(=O)O)c1ccc(OCc2cc(-c3ccc(OC)cc3)cn3ncnc23)cc1` [Example 2, (S)-3-{4-[6-(4-Methoxy-phenyl)-[1,2,4]triazolo[1,5-a]pyridin-8-ylmethoxy]-phenyl}-hex-4-ynoic acid] was tested. Which Emax did it give?
Answer: > 35%

Question: Which Emax does the source give for `CC#C[C@@H](CC(=O)O)c1ccc(OCc2cc(-c3cc(OC)ccc3F)cn3ncnc23)cc1` [Example 6] here?
Answer: > 35%

Question: Which Emax does the source give for `CC#C[C@@H](CC(=O)O)c1ccc(OCc2cc(-c3ccc(C(C)(C)C#N)cc3)cn3ncnc23)cc1` [Example 19, (S)-3-(4-{6-[4-(Cyano-dimethyl-methyl)-phenyl]-[1,2,4]triazolo[1,5-a]pyridin-8-ylmethoxy}-phenyl)-hex-4-ynoic acid] here?
Answer: > 35%

Question: `CC#C[C@@H](CC(=O)O)c1ccc(OCc2cc(-c3c(C)cccc3C)cn3ncnc23)cc1` [Example 11, (S)-3-{4-[6-(2,6-Dimethyl-phenyl)-[1,2,4]triazolo[1,5-a]pyridin-8-ylmethoxy]-phenyl}-hex-4-ynoic acid] was tested. Which Emax did it give?
Answer: > 35%

Question: `CC#C[C@@H](CC(=O)O)c1ccc(OCc2cc(-c3ccc(C#N)cc3)cn3ncnc23)cc1` [Example 13, (S)-3-{4-[6-(4-Cyano-phenyl)-[1,2,4]triazolo[1,5-a]pyridin-8-ylmethoxy]-phenyl}-hex-4-ynoic acid] was tested. Which Emax did it give?
Answer: > 35%

Question: For `CC#C[C@@H](CC(=O)O)c1ccc(OCc2cc(-c3ccc(OCCC(C)(C)O)cc3C)cn3ncnc23)cc1` [Example 8, (S)-3-(4-{6-[4-(3-Hydroxy-3-methyl-butoxy)-2-methyl-phenyl]-[1,2,4]triazolo[1,5-a]pyridin-8-ylmethoxy}-phenyl)-hex-4-ynoic acid], which Emax is on record?
Answer: > 35%

Question: With `CC#C[C@@H](CC(=O)O)c1ccc(OCc2cc(-c3ccc(OCC#N)cc3C)cn3ncnc23)cc1` [Example 16, (S)-3-{4-[6-(4-Cyanomethoxy-2-methyl-phenyl)-[1,2,4]triazolo[1,5-a]pyridin-8-ylmethoxy]-phenyl}-hex-4-ynoic acid] as the compound, how does the Emax read?
Answer: > 35%

Question: For `CC#C[C@@H](CC(=O)O)c1ccc(OCc2cc(-c3ccc(C(F)F)cc3)cn3ncnc23)cc1` [Example 15, (S)-3-{4-[6-(4-Difluoromethyl-phenyl)-[1,2,4]triazolo[1,5-a]pyridin-8-ylmethoxy]-phenyl}-hex-4-ynoic acid], which Emax is on record?
Answer: > 35%

Question: For `CC#C[C@@H](CC(=O)O)c1ccc(OCc2cc(-c3ccc(OC)cc3C)cn3ncnc23)cc1` [Example 4, (S)-3-{4-[6-(4-Methoxy-2-methyl-phenyl)-[1,2,4]triazolo[1,5-a]pyridin-8-ylmethoxy]-phenyl}-hex-4-ynoic acid], which Emax is on record?
Answer: > 35%

Question: Which Emax does the source give for `CC#C[C@@H](CC(=O)O)c1ccc(OCc2cc(-c3ccc(S(C)(=O)=O)cc3)cn3ncnc23)cc1` [Example 17] here?
Answer: > 35%

Question: `CC#C[C@@H](CC(=O)O)c1ccc(OCc2cc(-c3ccc(OC(F)F)cc3C)cn3ncnc23)cc1` [Example 20, (S)-3-{4-[6-(4-Difluoromethoxy-2-methyl-phenyl)-[1,2,4]triazolo[1,5-a]pyridin-8-ylmethoxy]-phenyl}-hex-4-ynoic acid] was tested. Which Emax did it give?
Answer: > 35%

Question: How did the Emax turn out when `CC#C[C@@H](CC(=O)O)c1ccc(OCc2cc(-c3c(C)cccc3F)cn3ncnc23)cc1` [Example 3, (S)-3-{4-[6-(2-Fluoro-6-methyl-phenyl)-[1,2,4]triazolo[1,5-a]pyridin-8-ylmethoxy]-phenyl}-hex-4-ynoic acid] was run?
Answer: > 35%

Question: For `CC#C[C@@H](CC(=O)O)c1ccc(OCc2cc(-c3ccc(OCCCS(C)(=O)=O)cc3C)cn3ncnc23)cc1` [Example 7, (S)-3-(4-{6-[4-(3-Methanesulfonyl-propoxy)-2-methyl-phenyl]-[1,2,4]triazolo[1,5-a]pyridin-8-ylmethoxy}-phenyl)-hex-4-ynoic acid], which Emax is on record?
Answer: > 35%

Question: `CC#C[C@@H](CC(=O)O)c1ccc(OCc2cc(-c3ccc(C(C)C)cc3)cn3ncnc23)cc1` [Example 9, (S)-3-{4-[6-(4-Isopropyl-phenyl)-[1,2,4]triazolo[1,5-a]pyridin-8-ylmethoxy]-phenyl}-hex-4-ynoic acid] was tested. Which Emax did it give?
Answer: > 35%

Question: With `CC#C[C@@H](CC(=O)O)c1ccc(OCc2cc(-c3cc(Cl)ccc3C)cn3ncnc23)cc1` [Example 12] as the compound, how does the Emax read?
Answer: > 35%

Question: For `CC#C[C@@H](CC(=O)O)c1ccc(OCc2cc(-c3c(C)cc(OC)cc3C)cn3ncnc23)cc1` [Example 5, (S)-3-{4-[6-(4-Methoxy-2,6-dimethyl-phenyl)-[1,2,4]triazolo[1,5-a]pyridin-8-ylmethoxy]-phenyl}-hex-4-ynoic acid], which Emax is on record?
Answer: > 35%

Question: With `CC#C[C@@H](CC(=O)O)c1ccc(OCc2cc(-c3ccc(S(N)(=O)=O)cc3C)cn3ncnc23)cc1` [Example 18, (S)-3-{4-[6-(2-Methyl-4-sulfamoyl-phenyl)-[1,2,4]triazolo[1,5-a]pyridin-8-ylmethoxy]-phenyl}-hex-4-ynoic acid] as the compound, how does the Emax read?
Answer: > 35%

Tested on: Zucker fa/fa rats
Experiment: Acute oral glucose tolerance test (OGTT)
Assay type: in vivo, rat
Conditions: oral; Example 1 at 1, 3 and 10 mg/kg, TAK875 at 1 mg/kg; p<0.05
Experimental: OGTTs are performed in Zucker fa/fa rats, a rodent model of insulin resistance, after 1 and 21 days of orally administered material at 1.0, 3.0 and 10 mg/kg. TAK875 at 1 mg/kg served as the positive control. The OGTTs are performed one hour post compound administration with blood samples taken for determination of glucose and insulin levels at 10, 20, 40, 60, and 120 minutes post glucose administration.

Question: How did the “AUCs for glucose lowering” value turn out when `Cc1cc(OCCCS(C)(=O)=O)cc(C)c1-c1cccc(COc2ccc3c(c2)OC[C@H]3CC(=O)O)c1` [TAK875, fasiglifam, reference compound] was run?
Answer: statistically significant
